Assay results taken from a melting point compilation (Tetko et al.; mined from patent text by program, amines drawn as free bases though some values may be those of a salt).

melting point | SMILES
140 to 142 °C | COc1ccc(-c2ocnc2-c2cc(OC)c(F)c(OC)c2)cc1N
308 to 313 °C | CCOC(=O)c1cc2c(cn1)[nH]c1ccc(Br)cc12
208 °C | C=CCn1cc(C(=O)O)c(=O)c2cc(F)c(N3CCN(C)CC3)cc21
101 to 103 °C | CC12CC3CC(C)(C1)CC(C(=O)NCc1cccs1)(C3)C2
130 to 145 °C | CC(=O)Nc1c(C(=O)c2cccc(O)c2)[nH]c2cc(Cl)ccc12
234 to 236 °C | Cn1ncc2c1-c1c(Sc3ccccn3)sc(C(N)=O)c1CC2
58 to 59 °C | COc1ccc(CS(=O)(=O)C(C)(Cc2ccccc2)C(=O)O)cc1 (configuration not stated)
129 to 130 °C | C=CCNC(=O)C1C=C(O)c2cc(Cl)ccc2O1 (configuration not stated)
162 to 165 °C | OCCOc1ccc2nc(S)sc2c1
100 to 101 °C | CCCCc1oc2ccc(C(=O)OC(C)C)cc2c1C(=O)c1ccc(OS(=O)(=O)C(F)(F)F)cc1
80 to 82 °C | OCCc1nccn1CCCc1ccc(OCc2ccccc2)cc1
155 to 156 °C | Cn1c(C(F)(F)F)cc(=O)n(-c2ccc3snc(C(C)(C)C(=O)O)c3c2)c1=O
126 to 127 °C | COc1ccc2sc(C(N)=O)c(SCC(=O)O)c2c1
50 to 52 °C | CCc1ccc(C(Cl)=NOS(C)(=O)=O)cc1
155 to 157 °C | Cc1[nH]c(=O)n(-c2cc(C(=O)OC(C)C)c(Cl)cc2F)c(=O)c1C
164 to 165 °C | COc1ccc(-c2csc(N(C(C)=O)c3cc4ccccc4cn3)n2)cc1OC
> 360 °C | O=C(O)c1ccc2c(c1)S(=O)(=O)c1ccc([N+](=O)[O-])cc1C2=O
174 to 175 °C | Cc1ccc(-c2ccc3c(c2)C=C(C(=O)Nc2ccc(CN4CCN(C)CC4)cc2)CC3)cc1
200 to 202 °C | CCn1c(C#N)ccc1-c1ccc2c(c1)C(C)(C)OC(=O)N2
209 to 210 °C | COc1ccc(C(=NO)c2cc(F)ccc2F)c(O)c1Cl
125 to 128 °C | COc1cccc([C@H]2O[C@H](CC(=O)NCCCOc3ccc(CC(=O)O)cc3)C(=O)N(CC(C)(C)CO)c3ccc(Cl)cc32)c1OC
205 to 206 °C | CC(C)(C(=O)O)c1cn2nc(NCCCN3CCC(OC(c4ccccc4)c4ccccc4)CC3)ccc2n1
159 to 162 °C | COc1ccccc1N1CCN(CC2(C)N=C(c3cccnc3)NC2=O)CC1 (configuration not stated)

melting point | SMILES
218 to 220 °C | CCOC(=O)c1cnc2c(c1O)CC(CC)CC2 (configuration not stated)
145 °C | CCC1(O)OCc2c1ccnc2OC (configuration not stated)
240 to 242 °C | Cc1cc(C)cc(Nn2c(-c3ccccc3)c(C)[nH]c2=S)c1
174 to 176 °C | CC(=O)c1ncn(-c2ccccc2)n1
167 to 169 °C | C/C(=N\OCCOc1ccc(C(=O)O)cc1Cl)c1ccc(C(C)(C)C)cc1
216 to 217 °C | CC1CC(=O)c2c(nc3c(c2N)c2ccccc2n3C)C1 (configuration not stated)
233 to 235 °C | CC1(C)C(=O)Nc2cc3[nH]c(C4=CCCC4)nc3cc21
247 °C | COc1ccc(-c2[nH]nc3c2C(=O)c2c(NC(=O)NNC(=O)c4ccc(N)cc4)cccc2-3)cc1
121 to 123 °C | CCOC(=O)CC(=O)c1cc(F)c(N2CCNCC2)nc1Nc1ccc(F)cc1F
108 to 109 °C | CCCN1CCN(c2cc(-c3ccc(F)cc3F)c3c(n2)CCCCCC3)CC1
139 to 142 °C | COC(=O)c1ccc(N=Cc2cccc(Cl)c2)cn1
178 to 179 °C | CSC1=NC(C)(C)CN1C(=O)Nc1c(C)cccc1C
129 to 131 °C | CCCCc1oc2ccccc2c1C(=O)NCC(=O)c1ccc2cc(OC)ccc2c1
171 °C | CC1(C)Cc2cccc(Oc3ccc(NC(=O)NC(=O)c4c(F)cccc4F)cc3Cl)c2O1
140 °C | CCCC(=O)C1=C(O)CC(c2c(C)c(C)c(C)c3c2OCC3)CC1=O (configuration not stated)
178 to 180 °C | CC1=NN(c2c(Cl)cc(Cl)cc2Cl)C(=O)C1
153 to 154 °C | CCS(=O)(=O)N(c1cc(-c2nsc(C(F)(F)F)c2Cl)c(Cl)cc1Cl)S(=O)(=O)CC
115 °C | CCOCC1=C(C(=O)OCC)C(c2ccccc2Cl)C(C(=O)OCC)=C(C)N1 (configuration not stated)
90 to 92 °C | O=C(O)c1nc(Oc2cccc(C(F)(F)F)c2)ccc1Cl
128 to 131 °C | CC1=C(C(=O)CS(=O)(=O)NC(C)C)[C@@H](c2cccc([N+](=O)[O-])c2)C(C(=O)O[C@@H](C)c2ccccc2)=C(C)N1
166 to 167 °C | N#CCc1ccc2c(c1)Cc1cccnc1O2
263 to 264 °C | CN1CCN(c2ccc(NC(=O)c3cc4ccccc4s3)cc2C#N)CC1
173 to 175 °C | Cc1cnc(C2=NC(C)(C(C)C)C(=O)N2)c(C(=O)c2ccc(C)s2)c1 (configuration not stated)

melting point | SMILES
237 to 238 °C | O=C(O)CCC(=O)c1ccc(NC(=O)CCN2CCC(c3ccccc3)CC2)cc1
51.2 °C | CCC/C=C/[C@H]1CC[C@H](c2ccc(C(C)=O)cc2)CC1
101 to 104 °C | Nc1ccccc1NCC12CC3CC(CC(C3)C1)C2
196 to 198 °C | CNc1nc(Cl)cc(NS(=O)(=O)c2ccc(Cl)cc2)n1
88 to 90 °C | N#CC(C#N)=C1N(CCCN2CCCCC2)CCCN1CCCN1CCCCC1
276 to 284 °C | O=C1c2ccccc2-c2cc(O)c(Cl)c(Cl)c21
26 to 28 °C | CCOC(=O)c1cnc(OC)nc1Cl
150 °C | N#CCCc1c(SC(F)(F)F)c(C#N)c(Cl)n1-c1c(Cl)cc(C(F)(F)F)cc1Cl
159 to 160 °C | COc1cc(-n2nc(C(F)(F)F)cc2-c2ccc(S(C)(=O)=O)cc2)ccc1F
79.8 °C | CCCn1c(-c2ccccc2)nc2cc(C(=O)OC)ccc21
52 to 53 °C | CCOC(=O)C=Cc1ccc(OC2CCCCO2)cc1 (configuration not stated)
62 °C | C[C@@H](C(=O)OCCCCNc1cccc2c1C(=O)c1ccccc1C2=O)N(C)C(=O)OC(C)(C)C
132 to 135 °C | CC(C)COc1nc(N)c2ncn(C3C=CCCC3)c2n1 (configuration not stated)
150 to 156 °C | O=C(NO)C(CN1C(=O)CNC1=O)CS(=O)(=O)c1ccc(-c2ccc(Cl)cc2)cc1 (configuration not stated)
133 to 135 °C | COc1ccc(CC(=O)N(Cc2ccc(C)cc2)C2CCN(CC3CCCCC3)CC2)cc1
93.5 to 96.5 °C | COC(=O)CC(=O)Nc1cccc(COc2ccc(C(C)=O)c(OC)c2)c1
72 °C | CC(C)(C)C(=O)NCCCN(CCCNC(=O)C(C)(C)C)c1ccccc1
126 to 128 °C | CCCOc1cc(-c2c(C(=O)OCC)c(CCl)nc3cc(OC)c(OC)cc23)ccc1OC
94.5 to 95.5 °C | CCOC(=O)c1oc(Br)nc1C
158 to 160 °C | Nc1ncc(-c2ccccc2)nc1Sc1ccc(Cl)cc1
120 to 121 °C | COC(=O)CC(CSC(C)=O)C(=O)O (configuration not stated)
162 to 163 °C | Cc1c(NC(=O)CC(C)(C)C)cc2c(c1C)OC(C)(C)C2c1cccc(C(C)C)c1 (configuration not stated)

SMILES | melting point
CC(=O)c1c(C)[nH]c(CCN)c1C | 106 to 108 °C
O=c1c2ccccc2nc(CCl)n1-c1ccccc1 | 152 to 153 °C
CC(C)N[C@H](CO)Cc1ccccc1 | 65 to 66 °C
Cc1nnc2n1-c1sc3c(c1C(c1ccccc1Cl)=NC2)CCN(C(=S)Nc1ccccc1C(F)(F)F)C3 | 190 to 192 °C
